Tests used:
[1] = biological target: T1, serotonin 5-HT1A receptor (Rattus norvegicus, UniProt P19327); assay: serotonin 5-HT1A receptor binding, displacement of [3H] 8-OHDPAT; design: following the procedure of Hall et al., J. Neurochem; 44 1685 (1985); from tissue; details: for inhibition at 0.1 µM: as marked beside the value
T1 sequence (P19327 1-422): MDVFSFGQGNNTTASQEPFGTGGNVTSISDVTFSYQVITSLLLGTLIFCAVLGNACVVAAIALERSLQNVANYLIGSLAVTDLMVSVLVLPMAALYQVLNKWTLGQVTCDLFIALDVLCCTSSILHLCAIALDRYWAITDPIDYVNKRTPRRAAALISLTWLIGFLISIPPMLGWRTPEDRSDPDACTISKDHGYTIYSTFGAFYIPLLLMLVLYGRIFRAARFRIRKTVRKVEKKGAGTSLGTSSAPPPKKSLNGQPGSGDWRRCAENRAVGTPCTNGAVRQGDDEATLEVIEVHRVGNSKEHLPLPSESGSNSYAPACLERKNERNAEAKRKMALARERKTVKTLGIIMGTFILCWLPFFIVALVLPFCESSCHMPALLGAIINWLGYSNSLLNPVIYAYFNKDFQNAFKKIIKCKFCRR
Source text: High affinity for the serotonin 5-HT1A receptor was established by testing the claimed compounds ability to displace [^3 H] 8-OHDPAT (dipropylaminotetralin) from the 5HT1A serotonin receptor following the procedure of Hall et al., J. Neurochem. 44 1685 (1985). […] The anxiolytic activity of buspirone is believed to be, at least partially, due to its 5-HT1A receptor affinity (Vander Maclen et al., Eur. J. Pharmacol. 1986, 129 (1-2) […].

[2] = biological target: T2, dopamine D-2 receptor (Rattus norvegicus, UniProt P61169); assay: dopamine D-2 receptor binding, displacement of 3H-spiroperidol, homogenized limbic brain tissue
T2 construct: from tissue; host or cells: homogenized limbic brain tissue
T2 sequence (P61169 whole entry): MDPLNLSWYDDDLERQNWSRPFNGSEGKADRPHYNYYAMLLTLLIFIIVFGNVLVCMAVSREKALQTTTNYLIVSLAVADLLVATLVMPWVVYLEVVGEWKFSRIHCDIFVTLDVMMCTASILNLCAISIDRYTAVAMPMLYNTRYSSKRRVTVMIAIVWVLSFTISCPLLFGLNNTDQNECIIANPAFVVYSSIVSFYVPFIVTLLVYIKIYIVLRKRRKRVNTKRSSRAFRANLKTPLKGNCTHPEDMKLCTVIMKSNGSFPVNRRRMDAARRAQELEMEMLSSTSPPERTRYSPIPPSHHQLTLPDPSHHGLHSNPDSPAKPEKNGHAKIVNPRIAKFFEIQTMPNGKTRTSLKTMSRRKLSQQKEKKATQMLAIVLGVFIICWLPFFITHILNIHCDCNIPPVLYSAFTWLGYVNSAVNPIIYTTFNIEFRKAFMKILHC
Description: High affinity for the dopamine D-2 receptor was established by the standard experimental test procedure of Fields et al., Brain Res., 136 578 (1977) and Yamamura et al., eds., Neurotransmitter Receptor Binding, Raven Press, N.Y. (1978) wherein homogenized limbic brain tissue is incubated with ^3 H-spiroperidol and various concentrations of test compound, filtered and washed and shaken with Hydrofluor scintillation cocktail (National Diagnostics) and counted in a Packard 460 CD scintillation counter.

[3] = system: 5-HT1A receptor; details: cited from earlier work
[4] = biological target: T1, serotonin 5-HT1A receptor; details: in words; standard for anxiolytic activity; cited from earlier work

Row | Structure (SMILES) | inhibition at 1 µM [2] | inhibition at 1 µM ([1]; at 1 μM) | other results
1 | O=C1CC2(CCCC2)CC(=O)N1CCCCNCC1COc2ccccc2O1 (single isomer, unassigned) [-(MDL) 72832] | – | – | binding at the 5-HT1A receptor site relative to the dextro rotatory isomer ([3]; ratio to dextro rotatory isomer): 32 times
2 | O=C1CC2(CCCC2)CC(=O)N1CCCCN1CCN(c2ncccn2)CC1 [buspirone] | – | – | affinity for the 5-HT1A serotonin receptor subtype [4]: potent affinity
3 | O=C1C2C3C=CC(C4C=CC43)C2C(=O)N1CCNCC1COc2ccccc2O1 (stereo not shown) [Example 7, 2-[2-[(2,3-Dihydro-1,4-benzodioxan-2-ylmethyl)amino]ethyl]hexahydro-4,7-etheno-1H-cyclobut[f]isoindole-1,3-(2H)-dione] | 54% | – | inhibition at 0.1 µM [1]: 92%
4 | O=C1C2C(C(=O)N1CCCCNCC1COc3ccccc3O1)C1C3CC4C(C32)C41 (stereo not drawn) [Example 3, Exo-2-[4-[(2,3-dihydro-1,4-benzodioxan-2-ylmethyl)amino]butyl]octahydro-4,5,7-metheno-1H-pentaleno[1,2c]pyrrole-1,3(2H)-dione] | – | – | 5-HT1A Binding (% Inhibition at 1 μM) ([1]; at 1 μM): 94%; D-2 Binding (% Inhibition at 1 μM) ([2]; at 1 μM): 100%
5 | CC1(C)[C@@H]2CC[C@@]1(C)C(=O)N(CCNCC1COc3ccccc3O1)C2=O (stereo partly shown) [Example 6] | 61% | – | inhibition at 0.1 µM [1]: 52%
6 | O=C1CC2(CCCC2)CC(=O)N1CCCCNCC1COc2ccccc2O1 (stereo not shown) [MDL 72832, 8-[4-(1,4-benzodioxan-2-ylmethylamino)butyl]-8-azaspiro[4.5]decane-7,9-dione] | – | – | 5-HT1A receptor ligand character ([3]; in words): selective and stereospecific

More lines, main results first:

Row | inhibition at 1 µM [2] | inhibition at 1 µM ([1]; at 1 μM) | Structure (SMILES) | other results
7 | 89% | – | O=C1C2CC(C(=O)N1CCNCC1COc3ccccc3O1)C1C2C2C3CC4C2C4C31 (stereo not shown) [Example 8, Decahydro-3-[2-[(2,3-dihydro-1,4-benzodioxan-2-ylmethyl)amino]ethyl]-1,5-methano-6,7,9-metheno-2H-pentaleno[1,2d]azepine-2,4(3H)-dione] | inhibition at 0.1 µM [1]: 100%
8 | 100% | 100% | O=C1C2C3C=CC(C4C=CC43)C2C(=O)N1CCCCNCC1COc2ccccc2O1 (stereo not shown) [Example 4, 2-[4-[(2,3-Dihydro-1,4-benzodioxan-2-ylmethyl)amino]butyl]hexahydro-4,7-etheno-1H-cyclobut[f]isoindole-1,3-(2H)-dione] | –
9 | 100% | 100% | O=C1C2C3C=CC(C4CC34)C2C(=O)N1CCCCNCC1COc2ccccc2O1 (stereo not shown) [Example 5] | –
10 | 100% | 96% | O=C1C2C(C(=O)N1CCCCNCC1COc3ccccc3O1)C1C3CC4C(C32)C41 (stereo not drawn) [Example 2, Endo-2-[4-[(2,3-dihydro-1,4-benzodioxan-2-ylmethyl)amino]butyl]octahydro-4,5,7-metheno-1H-pentaleno[1,2-c]pyrrole-1,3(2H)-dione] | –
11 | 100% | 96% | O=C1C2CC(C(=O)N1CCCCNCC1COc3ccccc3O1)C1C2C2C3CC4C2C4C31 (stereo not shown) [Example 1, Decahydro-3-[4-[(2,3-dihydro-1,4-benzodioxan-2-ylmethyl)amino]butyl]-1,5-methano-6,7,9-metheno-2H-pentaleno[1,2-d]azepine-2,4(3H)-dione] | –
